Measurements: patent EP4786487A1, “PEPTIDE” (Peptidream Inc, priority 2023, dated 2025)
Like-named read-outs stand apart in the source and are kept apart here. Starred links: 1 amine or outer side, 2 acyl side, 3 side chain; linkers in the order of their positions; H or OH if unused. Positions of bridges follow the written chain, without caps; N, C: chain ends. Non-standard residues stand in square brackets, D forms with d. Residues, ends and D or L forms follow the SMILES beside them. Trp(6-OH,1-(4-HO2C-Ph)) = N[C@@H](Cc1cn(-c2ccc(C(=O)O)cc2)c2cc(O)ccc12)C(=O)O; Phe(3-OCH2COOH) = N[C@@H](Cc1cccc(OCC(=O)O)c1)C(=O)O; NMePhe(4-CH2NH2) = CN[C@@H](Cc1ccc(CN)cc1)C(=O)O; Phe(4-COOH) = N[C@@H](Cc1ccc(C(=O)O)cc1)C(=O)O; Bip = N[C@@H](Cc1ccc(-c2ccccc2)cc1)C(=O)O; Gly(N(CH2)3COOH) = O=C(O)CCCNCC(=O)O; NMeY = CN[C@@H](Cc1ccc(O)cc1)C(=O)O; X1 = CCCCCCC[C@H](N[*:1])C(=O)[*:2]; NMeF = CN[C@@H](Cc1ccccc1)C(=O)O; NMeDab = CN[C@@H](CCN)C(=O)O; NMeA = CN[C@@H](C)C(=O)O; dNMeA = CN[C@H](C)C(=O)O

What was measured:
[1] = target: T1, Myostatin (Homo sapiens, UniProt O14793); test: Reporter gene assay for myostatin signaling in HepG2 cell line, Evaluation Procedure (1), myostatin inhibition; format: cell-based; details: read-out: IC50 (Luciferase) Myostatin HepG2
T1 construct: active myostatin (also called mature myostatin) is a homodimer consisting of two C-terminal growth factor domains; purchased R&D systems 788-G8/CF
T1 sequence (O14793 267-375): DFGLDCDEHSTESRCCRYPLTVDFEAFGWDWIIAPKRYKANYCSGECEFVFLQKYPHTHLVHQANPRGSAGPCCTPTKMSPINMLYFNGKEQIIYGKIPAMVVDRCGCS
Experimental: (§1) In this Example, the in vitro myostatin inhibitory effects of the peptides synthesized in Examples 1 and 2 were evaluated using a reporter gene assay for myostatin signaling in HepG2 cell line.
(§2) HepG2 cell line (HB-8065, ATCC) cultured in EMEM (055-08975, WAKO Industries) containing 10% FBS (10270106, Gibco) and 50 µg/mL gentamicin (11980-14, Nacalai Tesque) was seeded in 96-well plates (167008, Thermo) at 2.0 × 10^4 cells/well and incubated in a CO2 incubator (37°C, 5% CO2) for 24 hours. The pGL3(CAGA)12-luc plasmid, namely a pGL3 vector (E1751, Promega) having a luciferase gene inserted downstream of a promoter sequence with 12 CAGA repeats attached, was added to the wells along with a transfection reagent (X-treamGENE9 DNA Transfection Reagent, 6365809001, Roche) at a concentration of 0.04 µg/well. The cell line was cultured in a CO2 incubator (37°C, 5% CO2) for 24 hours for transfection. The medium was discarded and replaced with EMEM containing 50 µL/well of 0.1% bovine serum albumin (A7030, Sigma) and 50 µg/mL gentamicin, and incubated in a CO2 incubator (37°C, 5% CO2) for 2 hours.
(§3) Myostatin (788-G8/C, R&D systems) or GDF-11 (1958-GD-G8/CF, R&D systems) was added so that the final concentrations were those listed in Table 5.
(§4) A 4-fold dilution series of various peptides synthesized in Examples 1 and 2 was added to achieve 0.006-100 nmol/L (myostatin inhibition) and 0.12-2000 nmol/L (GDF-11 inhibition). At this time, blank wells, in which neither myostatin, GDF-11, nor each peptide was added, were also prepared and incubated in a CO2 incubator (37°C, 5% CO2) for 20 to 24 hours.
(§5) The medium containing the cells was removed, and a mixture containing PBS (14190144, Thermo) and a chromogenic substrate One-Glo Luciferase Assay System (E6120, Promega) at a ratio of 1:1 was added to each well at 100 µL/well. This was stirred with a plate shaker for 5 min and transferred to a 384-well plate (3570, Corning) at a volume of 20 µL/well.
(§6) The plate was centrifuged at 1,000 × g for 1 min and the luminescence signal (700 nm luminescence) was measured using a plate reader (Envision 2104, PerkinElmer). Based on the measured values, IC50 values of the peptides were calculated using software (Prism 9, GraphPad). […]
(§7) In this Example, the in vitro myostatin inhibitory effects of the peptides synthesized in Examples 10 and 11 were evaluated according to the Evaluation Procedure (1) in Example 3.

[2] = target: T2, GDF-11 (Homo sapiens, UniProt O95390); test: Reporter gene assay for myostatin signaling in HepG2 cell line, Evaluation Procedure (1), GDF-11 inhibition; format: cell-based; details: read-out: IC50 (Luciferase) GDF-11 HepG2
T2 construct: purchased R&D systems 1958-GD-G8/CF
T2 sequence (O95390 299-407): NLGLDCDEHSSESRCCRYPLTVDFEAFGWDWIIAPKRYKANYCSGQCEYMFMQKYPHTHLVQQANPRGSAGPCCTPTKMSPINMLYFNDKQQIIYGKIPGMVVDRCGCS
Experimental: as §1, §2, §3, §4, §5, §6, §7

IC50 ([1]; Method A: Myostatin 10 ng/mL) | IC50 ([2]; Method A: GDF-11 10 ng/mL) | IC50 ([1]; Method D: Myostatin 1.5 ng/mL) | IC50 ([2]; Method D: GDF-11 1.5 ng/mL) | SMILES
23.1 nM | 4030 nM |  |  | CC[C@H](C)[C@@H]1NC(=O)[C@H](Cc2ccc(O)cc2)N(C)C(=O)[C@H](Cc2ccc(O)cc2)NC(=O)[C@H](Cc2ccc(-c3ccccc3)cc2)NC(=O)[C@H](C)NC(=O)CN(CCCC(=O)O)C(=O)CSC[C@H](C(=O)O)NC(=O)[C@H](Cc2ccccc2)N(C)C(=O)[C@H](C)N(C)C(=O)[C@H](CC(C)C)NC(=O)[C@H](Cc2ccccc2)N(C)C(=O)[C@H](CCCNC(=N)N)NC(=O)[C@H](Cc2ccc(C(=O)O)cc2)NC(=O)[C@H](Cc2cccc(OCC(=O)O)c2)NC(=O)[C@@H](C)N(C)C1=O [Myostatin_99_v118] ({CH2CO}-[Gly(N(CH2)3COOH)]A[Bip]Y[NMeY]I[dNMeA][Phe(3-OCH2COOH)][Phe(4-COOH)]R[NMeF]L[NMeA][NMeF][dC]-OH; thioether N-15)
 |  | 0.17 nM | 52.8 nM | CCCCCCC[C@@H]1NC(=O)[C@@H]2Cc3ccc(cc3)CNC(=O)CC[C@H](NC(=O)CSC[C@H](C(=O)O)NC(=O)[C@H](Cc3ccccc3)N(C)C(=O)[C@H](C)N(C)C1=O)C(=O)N[C@@H](C)C(=O)N[C@@H](Cc1c[nH]c3ccccc13)C(=O)N[C@@H](Cc1ccc(O)cc1)C(=O)N(C)[C@@H](Cc1ccccc1)C(=O)N[C@@H]([C@@H](C)CC)C(=O)N(C)[C@@H](C)C(=O)N[C@@H](Cc1cccc(OCC(=O)O)c1)C(=O)N[C@@H](Cc1ccc(C(=O)O)cc1)C(=O)N[C@@H](CCCNC(=N)N)C(=O)N2C [Myostatin_99_v358] ({CH2CO}-EAWY[NMeF]I[NMeA][Phe(3-OCH2COOH)][Phe(4-COOH)]R[NMePhe(4-CH2NH2)][X1][NMeA][NMeF][dC]-OH; lactam 1-11; thioether N-15)
 |  | 0.15 nM | 117 nM | CCCCCCC[C@@H]1NC(=O)[C@H](Cc2ccccc2)N(C)C(=O)[C@H](CCCNC(=N)N)NC(=O)[C@H](Cc2ccc(C(=O)O)cc2)NC(=O)[C@H](Cc2cccc(OCC(=O)O)c2)NC(=O)[C@H](C)N(C)C(=O)[C@H]([C@@H](C)CC)NC(=O)[C@H](Cc2ccccc2)N(C)C(=O)[C@H](Cc2ccc(O)cc2)NC(=O)[C@H](Cc2c[nH]c3ccccc23)NC(=O)[C@H](C)NC(=O)[C@@H]2CC(=O)NCC[C@@H](C(=O)N(C)[C@@H](Cc3ccccc3)C(=O)N[C@@H](C(=O)O)CSCC(=O)N2)N(C)C1=O [Myostatin_99_v367] ({CH2CO}-DAWY[NMeF]I[NMeA][Phe(3-OCH2COOH)][Phe(4-COOH)]R[NMeF][X1][NMeDab][NMeF][dC]-OH; lactam 1-13; thioether N-15)
 |  | 0.04 nM | 15.2 nM | CCCCCCC[C@@H]1NC(=O)[C@@H]2Cc3ccc(cc3)CNC(=O)CC[C@H](NC(=O)CSC[C@H](C(=O)O)NC(=O)[C@H](Cc3ccccc3)N(C)C(=O)[C@H](C)N(C)C1=O)C(=O)N[C@@H](C)C(=O)N[C@@H](Cc1cn(-c3ccc(C(=O)O)cc3)c3cc(O)ccc13)C(=O)N[C@@H](Cc1ccc(O)cc1)C(=O)N(C)[C@@H](Cc1ccccc1)C(=O)N[C@@H]([C@@H](C)CC)C(=O)N1CCC[C@@H]1C(=O)N[C@@H](Cc1cccc(OCC(=O)O)c1)C(=O)N[C@@H](Cc1ccc(C(=O)O)cc1)C(=O)N[C@@H](CCCNC(=N)N)C(=O)N2C [Myostatin_99_v424] ({CH2CO}-EA[Trp(6-OH,1-(4-HO2C-Ph))]Y[NMeF]I[dP][Phe(3-OCH2COOH)][Phe(4-COOH)]R[NMePhe(4-CH2NH2)][X1][NMeA][NMeF][dC]-OH; lactam 1-11; thioether N-15)
